For 14 compounds, IC50 results are on record in ChEMBL document CHEMBL1128946, “Novel inhibitors of influenza sialidases related to GG167 structure-activity, crystallographic and Molecular dynamics studies with 4H-pyran-2-carboxylic acid 6-carboxamides” (Bioorg Med Chem Lett, 1996).

For the test, the target named is Neuraminidase (Influenza A virus (A/Puerto Rico/8/1934(H1N1)), UniProt P03468). Briefly: Inhibition of influenza A sialidase (neuraminidase). On the set-up: species or system Influenza A virus (strain: A/PR/8/34).
Turning to `CNC(=O)[C@@H]1OC(C(=O)O)=C[C@H](N)[C@H]1NC(C)=O`, the IC50 (usually the concentration that inhibits the measured activity by half) was 190000 nM. With `CC(=O)N[C@@H]1[C@@H](N=C(N)N)C=C(C(=O)O)O[C@H]1C(=O)N(C)C` the figure was 25 nM; with `CCCN(CCC)C(=O)[C@@H]1OC(C(=O)O)=C[C@H](N)[C@H]1NC(C)=O`, 3 nM; with `CCN(CCc1ccccc1)C(=O)[C@@H]1OC(C(=O)O)=C[C@H](N)[C@H]1NC(C)=O`, 5 nM. `CCN(CC)C(=O)[C@@H]1OC(C(=O)O)=C[C@H](N)[C@H]1NC(C)=O` gave a half-maximal inhibitory concentration (IC50) of 3 nM. The value for `CCCN(CCc1ccccc1)C(=O)[C@@H]1OC(C(=O)O)=C[C@H](N=C(N)N)[C@H]1NC(C)=O` was 5 nM; that for `CCNC(=O)[C@@H]1OC(C(=O)O)=C[C@H](N)[C@H]1NC(C)=O` was 13000 nM.

`CNC(=O)[C@@H]1OC(C(=O)O)=C[C@H](N=C(N)N)[C@H]1NC(C)=O`: the 50% inhibitory concentration (IC50) was found to be 7000 nM. With `CCCCN(CCCC)C(=O)[C@@H]1OC(C(=O)O)=C[C@H](N=C(N)N)[C@H]1NC(C)=O`, the IC50 amounted to 16 nM. With `CC(=O)N[C@H]1[C@H]([C@H](O)[C@H](O)CO)OC(C(=O)O)=C[C@@H]1N` the figure was 300 nM; with `CC(=O)N[C@@H]1[C@@H](N)C=C(C(=O)O)O[C@H]1C(=O)NCCc1ccccc1`, 12000 nM. In turn, `CCN(CC)C(=O)[C@@H]1OC(C(=O)O)=C[C@H](NC(=N)N)[C@H]1NC(C)=O` had a half-inhibitory concentration (IC50) of 1 nM.

As to `CC(=O)N[C@@H]1[C@@H](N)C=C(C(=O)O)O[C@H]1C(=O)N(C)CCc1ccccc1`, the IC50 was 320 nM. With `CCCN(CCc1ccc(-c2ccccc2)cc1)C(=O)[C@@H]1OC(C(=O)O)=C[C@H](N)[C@H]1NC(C)=O` the figure was 3 nM.
